Results on 20 molecules are retold here after patent US10265310B2, “6-membered cyclic amines or lactames substituted with urea and phenyl” (GRÜNENTHAL GMBH, priority 2016, dated 2019).

Molecules are shown by their SMILES.

Assay [1] deals with FPR2 (Homo sapiens (Human), UniProt P25090). Put plainly: Agonistic activity (calcium FLIPR) in hFPR2-Aq-CHO cells. The class given is cell-based. As to conditions: FLIPR Calcium 5 dye fluorescence, agonistic response. The procedure:
(§1) Cells (hFPR1-Gα15-CHO or hFPR2-Aq-CHO) are suspended in 10 mL of respective complete medium (F12(1×) HAM media; 10% HI-FBS; 0.1 mg/ml Hygromycin B and 0.2 mg/ml Zeocin [for hFPR1 only]; 0.4 mg/mL Geneticin and 0.25 mg/ml Zeocin [for hFPR2-Aq only]) and viability is checked using Trypan Blue exclusion. After washing, the cells are plated at 10,000 cells per well in 40 μL complete medium in a 384-well sterile clear bottom black plate and incubated in a 5% CO2 incubator at 37° C. for 18 hours. Plating media is removed from each well by decanting and gentle tapping before 30 μL of 0.5× Calcium 5 dye solution (0.5×FLIPR Calcium 5 dye (Molecular devices, R8186)); HBSS; 20 mM HEPES; 2.5 mM Probenecid; 0.025% Pluronic F-127; pH adjusted to 7.4) is added to each well and the plate is then incubated at 37° C. for 30 minutes. For the assay the plate is equilibrated at room temperature for 10 minutes before placing it in the FLIPR. Compounds are dissolved in DMSO and serially diluted over an 11 point half log (3.16 fold) dilution (2 mM to 20 nM). Compounds are then diluted 1:50 in assay buffer (HBSS; 20 mM HEPES; 2.5 mM Probenecid; 0.05% gelatin; 0.1% BSA; pH adjusted to 7.4) just before performing the assay. Compounds are finally added to the respective wells of the cell plate (final assay concentration 10 μM to 100 pM) using the FLIPR (e.g. FLIPR-Tetra, Molecular Devices) and fluorescence readings are captured for 5 minutes. The increase in fluorescence from the basal reading in the presence of the compounds is compared with that of the control wells (wells having no compound) to calculate the activity of the compounds. The EC50 values of the compounds can be determined using e.g. Graph pad Prism software.
(§2) Assay Method for Measuring Agonistic Activity of Compounds in hFPR1-Gα15-CHO and hFPR2-Aq-CHO Cell
(§3) Cryo-vial containing 6×10^6 cells (hFPR1-Gα15-CHO or hFPR2-Aq-CHO) was thawed in a 37° C. water bath. Cells were suspended in 10 ml of respective complete growth media (F12(1×) HAM media (Gibco; Cat#11765); 10% HI-FBS (Gibco; Cat#10082); 0.1 mg/ml Hygromycin B (Invitrogen; Cat#10687-010) [for hFPR1 only]; 0.2 mg/ml Zeocin (Invitrogen; Cat#R25001) [for hFPR1 only]; 0.4 mg/ml Geneticin (Gibco; Cat#10131) [for hFPR2-Aq only]; 0.25 mg/ml Zeocin (Invitrogen; Cat#R25001) [for hFPR2-Aq only]) in a 15 ml centrifuge tube. The cell viability was checked with the help of Trypan Blue dye. Upon washing the cells, those were plated in a 384-well sterile clear bottom black plate (Greiner Bioone Cat#781091) so that, each well contained 10,000 cells in 40 μl complete growth media. The plate was incubated in a 5% CO2 incubator at 37° C. for 18 hours.
(§4) Before assay on the next day, the cell plating media was removed from each well of the plate by decanting and gentle tapping. 30 μl, 0.11 of 0.5× Calcium 5 dye solution (0.5×FLIPR Calcium 5 dye (Molecular devices Cat# R8186); HBSS (Invitrogen; Cat#14025); 20 mM HEPES (Sigma; Cat#H0887); 2.5 mM Probenecid (Sigma; Cat#P8761); 0.025% Pluronic F-127 (Sigma; Cat#P2443); pH adjusted to 7.4) was added to each well. The plate was then incubated at 37° C. for 30 minutes. Following which the plate was equilibrated at room temperature for 10 minutes before placing it in a 384 well FLIPR for assay. Compounds were dissolved in DMSO and serially diluted following 11 point half log (3.16 fold) dilution with a starting concentration of 2 mM (Final assay concentration 10 μM). Aliquots of above mentioned each dilution was mixed with assay buffer (HBSS (Invitrogen; Cat#14025); 20 mM HEPES (Sigma; Cat#H0887); 2.5 mM Probenecid (Sigma; Cat#P8761); 0.05% gelatin (Sigma; Cat#G1890); 0.1% BSA (Sigma; Cat#A3059); pH adjusted to 7.4) just before performing the assay. Compounds were added to the respective wells of the assay ready cell plate with the help of the FLIPR (FLIPR Tetra) and fluorescence readings were captured for 5 minutes to measure any agonistic response of the compounds. […]

Assay [2] deals with FPR1 (Homo sapiens (Human), UniProt P21462). Put plainly: Agonistic activity (calcium FLIPR) in hFPR1-Gα15-CHO cells. The class given is cell-based. Particulars: FLIPR Calcium 5 dye fluorescence, agonistic response. The procedure: as §1, §2, §3, §4
Chain of FPR1 (P21462 whole entry): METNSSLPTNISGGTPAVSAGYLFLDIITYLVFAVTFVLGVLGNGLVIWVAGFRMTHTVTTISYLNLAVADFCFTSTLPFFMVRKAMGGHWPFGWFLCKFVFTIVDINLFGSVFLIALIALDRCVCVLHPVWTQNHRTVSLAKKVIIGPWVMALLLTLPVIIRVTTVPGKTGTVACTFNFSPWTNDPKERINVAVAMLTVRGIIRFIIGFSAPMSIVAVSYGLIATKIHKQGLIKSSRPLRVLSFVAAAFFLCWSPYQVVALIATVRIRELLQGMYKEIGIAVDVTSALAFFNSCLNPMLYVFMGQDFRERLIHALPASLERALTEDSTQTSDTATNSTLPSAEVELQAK

Chain of FPR2 (P25090 whole entry): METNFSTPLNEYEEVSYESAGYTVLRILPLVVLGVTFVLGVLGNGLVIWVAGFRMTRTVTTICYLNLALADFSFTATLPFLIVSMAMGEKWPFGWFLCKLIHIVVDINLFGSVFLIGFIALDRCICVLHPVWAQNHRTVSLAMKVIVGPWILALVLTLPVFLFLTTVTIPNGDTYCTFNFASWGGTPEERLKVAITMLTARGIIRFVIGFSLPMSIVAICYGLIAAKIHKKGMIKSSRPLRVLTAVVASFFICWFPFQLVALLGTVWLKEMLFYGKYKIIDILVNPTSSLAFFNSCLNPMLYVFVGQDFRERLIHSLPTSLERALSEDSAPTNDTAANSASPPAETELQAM

What is called EC50 is the midpoint of the concentration-response curve. As to `O=C(Nc1ccc(Cl)cc1)NC1CNCCC1c1ccccc1` (single isomer, unassigned; ent1) [Example 80, trans-ent1-1-(4-chlorophenyl)-3-(4-phenylpiperidin-3-yl)urea], the EC50 in assay [1] and in assay [2] was 1 to 1000 nM in each case.

As for `COc1cc(F)c([C@@H]2CC(=O)NC[C@H]2NC(=O)Nc2ccc(Cl)c(F)c2)c(F)c1` (racemic) [Example 58, rac-trans-1-(4-Chloro-3-fluoro-phenyl)-3-[4-(2,6-difluoro-4-methoxy-phenyl)-6-oxo-piperidin-3-yl]-urea], the EC50 in assay [1] and in assay [2] was 1 to 1000 nM each time.

In the case of `CS(=O)(=O)c1ccc([C@@H]2CC(=O)NC[C@H]2NC(=O)Nc2ccc(Cl)cc2)cc1` (racemic) [Example 75, rac-trans-1-(4-chlorophenyl)-3-(4-(4-(methylsulfonyl)phenyl)-6-oxopiperidin-3-yl)urea], the EC50 in assay [1] and in assay [2] was 1 to 1000 nM throughout.

As for `COc1cc(F)c(C2CC(=O)NCC2NC(=O)Nc2ccncc2)c(F)c1` (single isomer, unassigned; ent2) [Example 48, ent2-1-(4-(2,6-difluoro-4-methoxyphenyl)-6-oxopiperidin-3-yl)-3-(pyridin-4-yl)urea], the EC50 in assay [1] and in assay [2] was 1 to 1000 nM in each case.

Turning to `COc1cc(F)c([C@@H]2CCN(C(C)=O)C[C@H]2NC(=O)Nc2ccc(Cl)cc2)c(F)c1` (racemic) [Example 5, rac-trans-1-(1-acetyl-4-(2,6-difluoro-4-methoxyphenyl)piperidin-3-yl)-3-(4-chlorophenyl)urea], the EC50 in assay [1] was below 1 nM; in assay [2] it was 1 to 1000 nM.

With `COc1ccc(C2CC(=O)NCC2NC(=O)Nc2ccc(Cl)cc2)c(F)c1` (single isomer, unassigned; ent1) [Example 42, trans-ent1-1-(4-chlorophenyl)-3-(4-(2-fluoro-4-methoxyphenyl)-6-oxopiperidin-3-yl)urea], the EC50 in assay [1] was below 1 nM; in assay [2], 1 to 1000 nM.

For the molecule `COc1ccc(C2CC(=O)NCC2NC(=O)Nc2ccc(Cl)cc2)c(F)c1` (single isomer, unassigned; ent2) [Example 43, trans-ent2-1-(4-chlorophenyl)-3-(4-(2-fluoro-4-methoxyphenyl)-6-oxopiperidin-3-yl)urea], the EC50 in assay [1] and in assay [2] was 1 to 1000 nM in each case.

On to `COc1cc(F)c(C2CC(=O)NCC2NC(=O)Nc2ccncc2)c(F)c1` (single isomer, unassigned; ent1) [Example 47, ent1-1-(4-(2,6-difluoro-4-methoxyphenyl)-6-oxopiperidin-3-yl)-3-(pyridin-4-yl)urea], for which the half-maximal effective concentration (EC50) in assay [1] and in assay [2] was 1 to 1000 nM each time.

Consider `COc1ccc([C@@H]2CCN(C(=O)CC(C)C)C[C@H]2NC(=O)Nc2ccc(Cl)cc2)cc1` (racemic) [Example 18, rac-trans-1-(4-chlorophenyl)-3-[4-(4-methoxyphenyl)-1-(3-methyl-butanoyl)-piperidin-3-yl]-urea], for which the EC50 in assay [1] and in assay [2] was below 1 nM each time.

On to `COc1cc(F)c([C@@H]2CCNC[C@H]2NC(=O)Nc2ccc(Cl)cc2)c(F)c1` (racemic) [Example 9, rac-trans-1-(4-chlorophenyl)-3-(4-(2,6-difluoro-4-methoxyphenyl)piperidin-3-yl)urea], for which the concentration giving a half-maximal response (EC50) in assay [1] is below 1 nM; in assay [2], 1 to 1000 nM.

In the case of `COc1ccc([C@@H]2CCN(C(=O)C(C)(F)F)C[C@H]2NC(=O)Nc2ccc(Cl)cc2)cc1` (racemic) [Example 14, rac-trans-1-(4-chlorophenyl)-3-(1-(2,2-difluoropropanoyl)-4-(4-methoxyphenyl)piperidin-3-yl)urea], the EC50 in assay [1] and in assay [2] was below 1 nM each time.

On to `COc1ccc([C@@H]2CCNC[C@H]2NC(=O)Nc2ccc(Cl)cc2)cc1` (racemic) [Example 4, rac-trans-1-(4-chlorophenyl)-3-(4-(4-methoxyphenyl)piperidin-3-yl)urea], for which the EC50 in assay [1] is below 1 nM; in assay [2], 1 to 1000 nM.

As to `COc1ccc([C@@H]2CCN(C(=O)CCO)C[C@H]2NC(=O)Nc2ccc(Cl)cc2)cc1` (racemic) [Example 30, rac-trans-1-(4-chlorophenyl)-3-(1-(3-hydroxypropanoyl)-4-(4-methoxyphenyl)piperidin-3-yl)urea], the 50% effective concentration (EC50) in assay [1] and in assay [2] was below 1 nM each time.

Take `COc1ccc([C@@H]2CC(=O)N(CC(N)=O)C[C@H]2NC(=O)Nc2ccc(Cl)cc2)cc1` (racemic) [Example 20, rac-trans-2-(5-(3-(4-chlorophenyl)ureido)-4-(4-methoxyphenyl)-2-oxopiperidin-1-yl)acetamide]: the half-maximal effective concentration (EC50) in assay [1] is below 1 nM; in assay [2], 1 to 1000 nM.

Regarding `CCc1cc(F)c([C@@H]2CC(=O)NC[C@H]2NC(=O)Nc2ccc(Cl)cc2)c(F)c1` (racemic) [Example 69, rac-trans-1-(4-chlorophenyl)-3-(4-(4-ethyl-2,6-difluorophenyl)-6-oxopiperidin-3-yl)urea], the EC50 in assay [1] and in assay [2] was 1 to 1000 nM each time.

Turning to `COCCN1CC(NC(=O)Nc2ccc(Cl)cc2)C(c2ccc(F)cc2F)CC1=O` (single isomer, unassigned; ent1) [Example 63, trans-ent1-1-(4-Chlorophenyl)-3-[4-(2,4-difluoro-phenyl)-1-(2-methoxy-ethyl)-6-oxo-piperidin-3-yl]-urea], the EC50 in assay [1] and in assay [2] was 1 to 1000 nM in each case.

For the molecule `COc1ccc(C2CC(=O)NCC2NC(=O)Nc2ccc(Cl)cc2)cc1` (single isomer, unassigned; ent1) [Example 76, trans-ent1-1-(4-chlorophenyl)-3-(4-(4-methoxyphenyl)-6-oxopiperidin-3-yl)urea], the EC50 in assay [1] is below 1 nM; in assay [2], 1 to 1000 nM.

Consider `COCCN1CC(NC(=O)Nc2ccc(Cl)cc2)C(c2ccc(F)cc2F)CC1=O` (single isomer, unassigned; ent2) [Example 64, trans-ent2-1-(4-Chlorophenyl)-3-[4-(2,4-difluoro-phenyl)-1-(2-methoxy-ethyl)-6-oxo-piperidin-3-yl]-urea], for which the EC50 in assay [1] and in assay [2] was 1 to 1000 nM in each case.

As to `COc1cc(F)c([C@@H]2CC(=O)NC[C@H]2NC(=O)Nc2ccc(Cl)cc2)c(F)c1` (racemic) [Example 23, rac-trans-1-(4-chlorophenyl)-3-(4-(2,6-difluoro-4-methoxyphenyl)-6-oxopiperidin-3-yl)urea], the EC50 in assay [1] was below 1 nM; in assay [2] it was 1 to 1000 nM.

For the molecule `COc1ccc([C@@H]2CC(=O)N(CC3CC3)C[C@H]2NC(=O)Nc2ccc(Cl)cc2)cc1` (racemic) [Example 24, rac-trans-1-(4-chlorophenyl)-3-(1-(cyclopropylmethyl)-4-(4-methoxyphenyl)-6-oxopiperidin-3-yl)urea], the EC50 in assay [1] was below 1 nM; in assay [2], 1 to 1000 nM.
